In patent US4444776A, “Dipyrido (4,3-B) (3,4-F) indoles, process for obtaining them, therapeutical use and pharmaceutical compositions” (priority 1977, dated 1984):

Assays:
[1] = test system: L1210 leukemia; assay: Test 17: length of substituting chain, L1210 (Table XIII); format: in vivo, mouse
Experimental: Test 17: Relationship between the length of the substituting chain and the activity.
However compound 21 is less toxic (50 mg/kg for compound 21 and 25 mg/kg for compound 23), it has a higher ILS% than compound 23 and 1 mouse survived up to 60 days.

[2] = test system: mice; assay: Test 21: toxicity after intraperitoneal injection; conditions: for time of deaths after drug administration: IP; for minimal quantity resulting in 100% deaths: ip, 43200 min
Experimental: All drugs were dissolved in aqueous solutions adjusted at pH 5 with acetic acid and inoculated to the mice under a volume of 0.1 ml I.P. after dilution in Mac Coy's medium.
The toxicity of the drugs after intraperitoneal injection was estimated from the mortality rate up to the 30th day.

[3] = test system: L 1210 leukemia; assay: Test 10: comparison of antitumoral activity with known products, L 1210 (Tables V-VII); format: in vivo, mouse; conditions: J+3
Experimental: Test 10: Comparison of the antitumoral activity of the compound according to example 7 with that of known products
The compound of example 7, i.e. 1-(γ-diethylaminopropyl)amino-5-methyl-dipyrido-[4,3-b][3,4-f] indole or known compounds were injected into L 1210 leukemic mice 1 or 3 days after the inoculation of the cells at the doses indicated in tables V to VII and the mean survival time (MST) and the precentage of increased life span (ILS %) were measured.
Indications concerned the known products used in this example and particularly their antitumoral properties, their secondary effects and their use in man may be found in "La Chimiotherapie des Cancers", by G. MATHE and M. KENIS Expansion Scientifique Francaise, 3rd edition, Paris 1975.

[4] = Table V, 10^4 cells, doses mg/mouse: example 7 0.2, Thiotepa 0.1, Mitomycine 0.016, BCNU 0.1, Methotrexate 0.250
[5] = Table V, 10^4 cells, mg/mouse: example 7 0.2, Thiotepa 0.1, Mitomycine 0.016, BCNU 0.1, Methotrexate 0.250, Endoxan 4
[6] = Table VI, 10^5 cells, mg/mouse: Thiotepa 0.1, Mitomycine C 0.016, BCNU 0.1, Methotrexate 0.250, example 7 0.2, Endoxan 4
[7] = Table VII, 10^5 cells, example 7 0.2 mg/mouse, ON COVIN 0.5 μg/mouse

| SMILES | time of deaths after drug administration [2] [days] | minimal quantity resulting in 100% deaths ([2]; mouse, in vivo) [mg/kg] | ILS % [3, 4] [%] | MTS (mean survival time) [3, 4] | Range of death [3, 5] [days] | ILS % [3, 6] [%] | MTS (mean survival time) [3, 6] | Range of death [3, 6] | other results |
| --- | --- | --- | --- | --- | --- | --- | --- | --- | --- |
| Cc1c2ccnc(NCCN(C)C)c2cc2c1[nH]c1ccncc12 [Example 9, 1-(β-dimethylaminoethyl)amino-5-methyl-dipyrido-[4,3-b][3,4-f] indole] | 4 to 6 | 25 | – | – | – | – | – | – | activity against L1210 leukemia (in words) ([1]; Table XIII summary): active against L1210 leukemia; ILS % ([1]; day +1): 65.2%; Survivors up to 60 days ([1]; day +1): 0; MST ([1]; day +1, control MST 8.8): 14.6; Range of death ([1]; day +1, control MST 8.8): 11-18; toxicity (toxic dose) ([2]; mouse, in vivo): 25 mg/kg |
| CCN(CC)CCCC(C)Nc1nccc2c(C)c3[nH]c4ccncc4c3cc12 (stereo not drawn) [Example 10, 1-[(α-methyl-σ-diethylamino-butyl)-amino]-5-methyl-dipyrido-[4,3-b][3,4-f] indole] | 4 to 6 | 50 | – | – | – | – | – | – | ILS % ([1]; day +4): 56.25%; Survivors up to 60 days ([1]; day +4): 0; MST ([1]; day +4, control MST 11.2): 17.5; Range of death ([1]; day +4, control MST 11.2): 12-20 |
| CN(Cc1cnc2nc(N)nc(N)c2n1)c1ccc(C(=O)N[C@@H](CCC(=O)O)C(=O)O)cc1 [Methotrexate] | – | – | 44.62 | 15.9 | 15 to 17 | 39.35 | 12.62 | 12-14 | – |
| CO[C@@]12[C@H](COC(N)=O)C3=C(C(=O)C(C)=C(N)C3=O)N1C[C@@H]1N[C@@H]12 [Mitomycine C] | – | – | 4.95 | 11.54 | 10 to 15 | 0 | 9.06 | 9-10 | – |
| CC[C@]1(O)C[C@H]2CN(CCc3c([nH]c4ccccc34)[C@@](C(=O)OC)(c3cc4c(cc3OC)N(C=O)[C@H]3[C@@](O)(C(=O)OC)[C@H](OC(C)=O)[C@]5(CC)C=CCN6CC[C@]43[C@@H]65)C2)C1 [ON COVIN] | – | – | – | – | – | – | – | – | ILS % [3, 7]: 3.85%; MTS (mean survival time) [3, 7]: 10.8; Range of death [3, 7]: 10-13 |
| S=P(N1CC1)(N1CC1)N1CC1 [Thiotepa] | – | – | 0 | 11 | 10 to 11 | 1.54 | 9.2 | 9-10 | – |
